{"source": "patent US10745408B2", "about": "“Biologically active taxane analogs and methods of treatment by oral administration” (Tapestry Pharmaceuticals, Inc., priority 2007, dated 2020)", "key": {"SKNAS": {"system": "SKNAS", "experiment": "MTS proliferation assay, neuroblastoma SKNAS", "type": "cell-based", "conditions": "Homo sapiens, SK-N-AS", "method": "(§1) MTS Proliferation Assay (Promega)\n(§2) Day 1: Cells were plated in appropriate growth medium at 5×10^3 per well in 100 ul in 96 well tissue culture plates, Falcon, one for each drug to be tested. Col 1 was blank; it contained no cells, just medium. The plates were incubated overnight at 37° C., 5% CO2 to allow attachment.\n(§3) Day 2: Added 120 ul growth medium in wells of 96-well “dilution plates” (one for each drug) and let sit in 37° C. incubator for about 1 hr.\n(§4) Thawed DMSO drug stocks (usually at 10 mM). Each drug was diluted 6 ul into a tube with 3 ml growth medium, to 20 μM.\n(§5) Aspirated medium from col 12 of a dilution plate; added 200-300 ul of 20 uM drug to wells of col 12. Made serial dilution down this 96-well plate: for a […] dilution pattern, moved 60 ul from col 12 to col 11, mixed 4-5 times (using 8 place multi-pipettor), moved 60 ul to col 10, etc. stopping at col 3.\n(§6) Moved 100 ul of medium+drug from dilution plate to a cell plate, i.e. col 1 from drug plate (blank=no cells) to col 1 of cell plate, etc. up to col 12. Col 2 contained cells with no drug. […]\n(§7) Day 4 or 5: Terminated the assay 48 to 72 hrs after drug addition. […] When the color turned dark in control wells (col 2), and was still light in col 12, the absorbance at 490 nm was read on a plate reader; the results were used to calculate IC50."}, "MESSA": {"system": "MESSA", "experiment": "MTS proliferation assay, uterine MESSA", "type": "cell-based", "conditions": "Homo sapiens, MES-SA", "method": "as §1, §2, §3, §4, §5, §6, §7"}, "[1]": {"experiment": "Phase 1 Study S-(1)-01 plasma pharmacokinetics (weekly x3, 28-day cycle)", "type": "in vivo, human", "conditions": "for half-life / AUC(0-t): human, plasma; for AUC(0-t): read-out: AUC0-24", "source_text": "Both trials have enrolled patients with advanced solid tumors, non-Hodgkin's lymphoma or Hodgkin's lymphoma that have recurred or progressed following at least standard therapy; patients with malignancies for which there is no standard therapy; patients who are not candidates for standard therapy; or patients who have chosen not to pursue standard therapy. […] Study S-(1)-01 is currently being conducted in the United States. […] Study S-(1)-02 is currently being conducted in the United States and in Israel.\nPlasma pharmacokinetics of S-(1) were assessed following the first dose of S-(1) in both studies. Plasma samples were analyzed for S-(1) using a validated LC/MS-MS method."}, "[2]": {"conditions": "14 mg/m^2 i.v., first dose, 50:50 Cremophor EL-P/ethanol formulation"}, "[3]": {"conditions": "28 mg/m^2 i.v., first dose, 50:50 Cremophor EL-P/ethanol formulation"}, "[4]": {"conditions": "56 mg/m^2 i.v., first dose, 50:50 Cremophor EL-P/ethanol formulation"}, "[5]": {"conditions": "85 mg/m^2 i.v., first dose, 50:50 Cremophor EL-P/ethanol formulation"}, "[6]": {"conditions": "127.5 mg/m^2 i.v., first dose, 50:50 Cremophor EL-P/ethanol formulation"}}, "note": "Like-named read-outs stand apart in the source and are kept apart here.", "data": [{"smiles": "C=C[C@H]1O[C@H]2C[C@H]3OC[C@@]3(OC(C)=O)[C@H]3[C@H](OC(=O)c4ccccc4)[C@]4(C(C)(C)O)CC(OC(=O)[C@H](O)C(CC(C)C)NC(=O)OC(C)(C)C)C(C)=C4[C@H](OC(C)=O)[C@H](O1)[C@]23C", "note": "(stereo partly drawn) [S-(1)]", "values": [{"measurement": "IC50", "setting": "SKNAS", "result": 11, "unit": "nM"}, {"measurement": "IC50", "setting": "MESSA", "result": 2.9, "unit": "nM"}, {"measurement": "Cl", "setting": "[1]; [2]", "result": "35.5 ± 29.7", "unit": "L/hr/m^2"}, {"measurement": "Vss", "setting": "[1]; [2]", "result": "23.2 ± 74.5", "unit": "L/m^2"}, {"measurement": "Cl", "setting": "[1]; [3]", "result": "43.5 ± 14.5", "unit": "L/hr/m^2"}, {"measurement": "Vss", "setting": "[1]; [3]", "result": "309 ± 161", "unit": "L/m^2"}, {"measurement": "Cl", "setting": "[1]; [4]", "result": "28.6 ± 13.2", "unit": "L/hr/m^2"}, {"measurement": "Vss", "setting": "[1]; [4]", "result": "216 ± 70", "unit": "L/m^2"}, {"measurement": "Cl", "setting": "[1]; [5]", "result": "16.6 ± 9.26", "unit": "L/hr/m^2"}, {"measurement": "Vss", "setting": "[1]; [5]", "result": "142 ± 75.6", "unit": "L/m^2"}, {"measurement": "Cl", "setting": "[1]; [6]", "result": "30.2±11.9", "unit": "L/hr/m^2"}, {"measurement": "Vss", "setting": "[1]; [6]", "result": "239 ± 116", "unit": "L/m^2"}, {"measurement": "t1/2", "setting": "[1]; [6]", "result": "6.59 ± 2.60", "unit": "h"}, {"measurement": "half-life", "setting": "[1]; intravenous, S-(1)-01 study, all dose groups, read-out: Plasma t1/2 values, range over dose groups", "result": "3.45 to 8.4", "unit": "h"}, {"measurement": "AUC(0-t)", "setting": "[1]; iv, 14 mg/m2, 14 mg/m^2 i.v., first dose, 50:50 Cremophor EL-P/ethanol formulation", "result": "457 ± 297", "unit": "ng·h/mL"}, {"measurement": "half-life", "setting": "[1]; iv, 14 mg/m2, 14 mg/m^2 i.v., first dose, 50:50 Cremophor EL-P/ethanol formulation, read-out: t1/2 (converted)", "result": "8.4 ± 11.5", "unit": "h"}, {"measurement": "AUC(0-t)", "setting": "[1]; iv, 28 mg/m2, 28 mg/m^2 i.v., first dose, 50:50 Cremophor EL-P/ethanol formulation", "result": "682 ± 322", "unit": "ng·h/mL"}, {"measurement": "half-life", "setting": "[1]; iv, 28 mg/m2, 28 mg/m^2 i.v., first dose, 50:50 Cremophor EL-P/ethanol formulation, read-out: t1/2 (converted)", "result": "3.45 ± 1.09", "unit": "h"}, {"measurement": "AUC(0-t)", "setting": "[1]; iv, 56 mg/m2, 56 mg/m^2 i.v., first dose, 50:50 Cremophor EL-P/ethanol formulation", "result": "2070 ± 888", "unit": "ng·h/mL"}, {"measurement": "half-life", "setting": "[1]; iv, 56 mg/m2, 56 mg/m^2 i.v., first dose, 50:50 Cremophor EL-P/ethanol formulation, read-out: t1/2 (converted)", "result": "5.66 ± 3.63", "unit": "h"}, {"measurement": "AUC(0-t)", "setting": "[1]; iv, 85 mg/m2, 85 mg/m^2 i.v., first dose, 50:50 Cremophor EL-P/ethanol formulation", "result": "5970 ± 3900", "unit": "ng·h/mL"}, {"measurement": "half-life", "setting": "[1]; iv, 85 mg/m2, 85 mg/m^2 i.v., first dose, 50:50 Cremophor EL-P/ethanol formulation, read-out: t1/2 (converted)", "result": "5.52 ± 5.26", "unit": "h"}, {"measurement": "AUC(0-t)", "setting": "[1]; iv, 127.5 mg/m2, 127.5 mg/m^2 i.v., first dose, 50:50 Cremophor EL-P/ethanol formulation", "result": "4460 ± 2140", "unit": "ng·h/mL"}, {"measurement": "half-life", "setting": "[1]; iv, 127.5 mg/m2, 127.5 mg/m^2 i.v., first dose, 50:50 Cremophor EL-P/ethanol formulation, read-out: t1/2 (converted)", "result": "8.6 ± 1.3", "unit": "h"}]}]}
